# Reference: patent publication US11041010B2, “Hybrid peptidomimetics for use in neuropathic pain” (Uniwersytet Warszawski, priority 2017, dated 2021)
# Positions of bridges follow the written chain, without caps; N, C: chain ends. Non-standard residues stand in square brackets, D forms with d. No end group written: not given here. d2Nal = N[C@H](Cc1ccc2ccccc2c1)C(=O)O; Nle = CCCC[C@H](N)C(=O)O; Ahx = NCCCCCC(=O)O; βAla = NCCC(=O)O
# Assays:
# [1] = system: CCI mice (mouse model of neuropathic pain); assay: Mouse model of neuropathic pain (CCI), von Frey and cold plate tests taken together, intrathecal administration; type: in vivo; details: for analgesic activity of the reference compounds (mice, first stage): reason why no ED50 was calculated; for analgesic activity in neuropathic pain (mice): CCI mice, von Frey and cold plate tests, FIGS. 1-7 (B, C)
# Method: (§1) Albino Swiss mice were subjected to a loose unilateral ligation of the right sciatic nerve (a chronic constriction injury, CCI) according to the model developed by Bennett and Xie, Pain 33, 87-107, […]. […] The tests permitted to determine the analgesic efficiency of the novel compounds in the model of neuropathic pain. In the control mice (due to the absence of hypersensitivity, which characterizes neuropathic pain) at the same time points, a test of tail flick was conducted to determine pain threshold in the acute pain after intrathecal administration of the hybrid peptidomimetics.
# [2] = system: healthy rats (control rats); assay: Acute pain threshold in healthy (control) rats after intrathecal administration; type: in vivo; details: 0.1 μg/5 μl/rat, FIGS. 10-13 (A)
# [3] = system: CCI mice (mouse model of neuropathic pain); assay: Cold plate test (hyperalgesia) in mice with sciatic nerve injury (CCI), intrathecal administration; type: in vivo; details: mice in the neuropathic pain model, cold plate 2° C., range in brackets
# Method: as §1
# (§2) The results were presented for doses in micrograms, at which a half (50%) of the maximum effect (ED50) is reached. Calculation of the ED50 value requires clear dose-dependent effects.
# [4] = system: healthy mice (control mice); assay: Tail flick test, acute pain threshold in control mice after intrathecal administration; type: in vivo, mouse; details: for analgesic activity in control mice: healthy mice, FIGS. 1-7 (A)
# Method: as §1, §2
# [5] = system: CCI rats (rat model of neuropathic pain); assay: Rat model of neuropathic pain (CCI), von Frey and cold plate tests after intrathecal administration; type: in vivo; details: 0.1 μg/5 μl/rat, FIGS. 10-13 (B, C)
# Method: Wistar rats were subjected to cannulation for intrathecal administration by a method of Yaksh, T. L., Rudy, T. A., described in Physiol. Behay. 17, 1031-1036, 1976, and seven days after this procedure, a loose unilateral ligation of the right sciatic nerve (a chronic constriction injury, CCI) according to the model developed by Bennett and Xie (1988). After seven days from the CCI procedure, behavioral tests were conducted: the von Frey test and cold plate test to measure hypersensitivity to tactile and thermal stimuli, respectively. Hypersensitivity developed after injury of the nerve to two types of stimuli is a symptom of neuropathy.
# [6] = system: CCI mice (mouse model of neuropathic pain); assay: Von Frey test (allodynia) in mice with sciatic nerve injury (CCI), intrathecal administration; type: in vivo; details: mice in the neuropathic pain model, range in brackets
# Method: as §1, §2
# [7] = system: CCI mice (mouse model of neuropathic pain); assay: Mouse model of neuropathic pain (CCI), von Frey and cold plate tests after intravenous administration; type: in vivo; details: CCI mice, 15, 30 and 120 min, FIGS. 8-9
# Method: In the second stage of the pharmacological studies, the effect of the peripheral, intravenous administration of the hybrid peptidomimetics according to the invention (UW3, UW5) on the sensitivity to a mechanical stimulus (A) (von Frey test) and thermal stimulus (B) (cold plate test) threshold compared to a control group receiving water for injection was tested on mice in the neuropathy model (FIGS. 8 and 9). The studies were conducted at days 7-14 from the CCI procedure on mice at 15, 30 and 120 min after intravenous administration of the hybrid peptidomimetics UW3 and UW5 in the selected doses.
Substance,"analgesic activity of the reference compounds (mice, first stage) [1]",analgesic activity in healthy (control) rats [2],Cold plate (hyperalgesia) ED50 [3],"Control mice Tail flick test ED50 ([4]; control mice, dose giving 50% of maximum effect, range in brackets)",analgesic activity in control mice [4],analgesic activity in the rat model of neuropathic pain [5],Von Frey test (allodynia) ED50 [6],analgesic activity in neuropathic pain (mice) [1],"analgesic efficiency after peripheral, intravenous administration [7]"
Tyr-D-Ala-Gly-Phe-4AMB-Nle-cyclo[Asp-His-D-Nal(2′)-Arg-Trp-Lys]-NH2 [UW6],very weak and dose dependency-deprived analgesic activity,,,,,,,,
"Tyr-D-Ala-Gly-Phe-NH2 [UW1, reference compound]",,weak activity,9.3 (2.7-32)^ μg,0.03 (0.02-0.05) μg,show activity,weak activity,0.16 (0.1-0.25) μg,weakened in both or at least one hypersensitivity determining test,
Y[dA]GF[Ahx][Ahx][Nle]DH[d2Nal]RWK-NH2 (lactam 8-13) [UW5],,very weak activity,0.2 (0.008-6.5) μg,,limited analgesic efficiency,reaches maximum values,0.02 (0.00003-15) μg,higher analgesic efficiency,high analgesic efficiency
Y[dA]GF[Ahx][Nle]DH[d2Nal]RWK-NH2 (lactam 7-12) [UW3],,very weak activity,0.008 (0.005-0.01) μg,,limited analgesic efficiency,reaches maximum values,0.0004 (0.0001-0.002) μg,higher analgesic efficiency,high analgesic efficiency
Y[dA]GF[dA][Nle]DH[d2Nal]RWK-NH2 (lactam 7-12) [UW2],very weak and dose dependency-deprived analgesic activity,,,,,,,,
Y[dA]GF[βAla][Nle]DH[d2Nal]RWK-NH2 (lactam 7-12) [UW4],very weak and dose dependency-deprived analgesic activity,,,,,,,,
